The target in test [1] is T1, PAI-1 (plasminogen activator inhibitor-1) (Homo sapiens, UniProt P05121).
T1 construct: gene SERPINE1; Recombinant human PAI-1
The test is described as follows: SPR (Biacore […], immobilized PAI-1); also CETSA in cell extract; prodrug that releases MCL. In kind it is binding.

Test [2] concerns the target T1, PAI-1 (plasminogen activator inhibitor-1). The test is described as follows: SPR (Biacore […], immobilized PAI-1); also CETSA/ITDR in cell extract. In kind it is binding.

SMILES strings stand for the structures.

T1 sequence (P05121 24-402): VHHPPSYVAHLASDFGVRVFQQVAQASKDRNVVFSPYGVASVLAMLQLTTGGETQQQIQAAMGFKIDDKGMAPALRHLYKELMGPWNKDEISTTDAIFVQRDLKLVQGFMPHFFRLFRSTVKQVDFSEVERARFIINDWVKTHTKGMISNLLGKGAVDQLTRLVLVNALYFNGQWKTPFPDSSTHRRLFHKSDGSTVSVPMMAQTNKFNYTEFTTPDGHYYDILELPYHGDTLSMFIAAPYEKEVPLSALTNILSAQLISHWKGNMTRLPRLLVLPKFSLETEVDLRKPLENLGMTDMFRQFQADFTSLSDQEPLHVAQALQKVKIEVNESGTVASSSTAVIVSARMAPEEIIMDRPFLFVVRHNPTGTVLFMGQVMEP

A word on the Kd: it is a measure of binding affinity in units of concentration. For `CC1=C2CC[C@@](C)(O)[C@@H]2[C@H]2OC(=O)[C@@H](CN(C)C)[C@@H]2CC1` [ACT001], the Kd in test [1] amounted to 2310 µM.
In test [2], `C=C1C(=O)O[C@H]2[C@H]1CCC(C)=C1CC[C@@](C)(O)[C@@H]12` [MCL] returned an equilibrium dissociation constant (Kd) of 10.8 µM.

The values are drawn from PMC6779874, “ACT001, a novel PAI-1 inhibitor, exerts synergistic effects in combination with cisplatin by inhibiting PI3K/AKT pathway in glioma” (Cell Death & Disease, 2019).
